Laboratory results taken from US12454564B2, “Compositions and methods for T cell engineering” (Gracell Biotechnologies (Shanghai) Co., Ltd., priority 2018, dated 2025).
“Also recorded” adds a separate entry of the source.

Assays:
Assay in all cases: gRNA knockout efficiency
CD2 = format: cell-based
CD7 = settings: used together with TRAC-gRNA1
Procedure: (§1) For gene editing, 3 μg Cas9 protein and 1.5 μg gRNA were mixed in 20 μl and incubated at 37° C. or room temperature for 15 minutes to form ribonucleoprotein (RNP). Then RNP was transfected into T cells by Lonza 4D Nucleofector®. Gene knockout efficiency was determined by the ratio of the cells expressing the protein as detected by flow cytometry (FACS).
For gene editing, 3 μg Cas9 protein and 1.5 μg gRNA were mixed in 20 μl and incubated at 37° C. or room temperature for 15 minutes to form ribonucleoprotein (RNP). Then RNP was transfected into T cells by Lonza 4D Nucleofector®. Gene knockout efficiency was determined by the ratio of the cells expressing the protein as detected by flow cytometry.

TCR = test system: TCR
Procedure: as §1
First, gRNA sequences targeting the exon of the TCR conserved region were designed at http://crispr.mit.edu, and two gRNA sequences with scores above 80 were selected for higher knockout efficiency. For the gRNA primer, the forward primer comprises a T7 promotor followed by 20 bp of the target sequence, and the reverse primer has 20 bp of the complementary sequence. Plasmids were used as PCR template. After purification, T7-PCR product was further used as the template for MEGAshortscript® T7 kit to obtain RNA. The RNA was purified with a MEGAclear® column and eluted with RNA-free water. Cas9 plasmid was purchased from Addgene.
Meanwhile, the knockout efficiency of the gRNA was analyzed by T7E1, TIDE and flow cytometry.
For gene editing, 3 μg Cas9 protein and 1.5 μg gRNA were mixed in 20 μl and incubated at 37° C. or room temperature for 15 minutes to form ribonucleoprotein (RNP). […] Gene knockout efficiency was determined by the ratio of the cells expressing the protein as detected by flow cytometry.

Substance | CD7 knockout efficiency (CD7) | other results
CD2 gRNA2: gRNA GTGCCACAAAGACCATCAAG (SEQ ID NO 30) (listed as DNA, chemistry not given here) |  | CD2 knockout efficiency (CD2): the highest CD2 knockout efficiencies
CD7-gRNA1: gRNA GAGGTCAATGTCTACGGCTC (SEQ ID NO 25) (listed as DNA, chemistry not given here) | high knockout efficiencies; also recorded: obviously better | 
CD7-gRNA4: gRNA GGAGCAGGTGATGTTGACGG (SEQ ID NO 28) (listed as DNA, chemistry not given here) | obviously better | 
TRAC-gRNA2: gRNA TCAGGGTTCTGGATATCTGT (SEQ ID NO 21) (listed as DNA, chemistry not given here) |  | knockout efficiency for TCR (TCR): high knockout efficiencies
